Test results as given in patent publication US5925618A, “Peptides useful as somatostatin antagonists” (American Cyanamid Company, priority 1998, dated 1999).
Square brackets hold non-standard residues; d marks the D form. Peptide text beside a SMILES is read from it.

Legend:
SSTR2 = target: T1, SSTR2 (Rattus norvegicus, UniProt P30680); assay: Competitive binding of 125I labeled S-14 to membranes of cells expressing SSTR2; conditions: 125I labeled S-14, membranes
T1 construct: expressed in transfected cells
Method: Membrane preparation. Tissue culture cell lines expressing transfected CDNA clones of SSTR2, and SSTR5 are used as a source of plasma membranes which specifically bind ^125 I labeled S-14 (Amersham, Arlington Heights, Ill.). Cells are removed from culture dishes by incubation at 4° C. for 5 minutes in PBS containing 1 mM EDTA, spun down (2,000 rpm, 5') and resuspended in 15 mL homogenization buffer (1 mM sodium bicarbonate pH 7.2, 1 mM EDTA, 1 mM EGTA and the following protease inhibitors: leupeptin and aprotenin at 5 μg/mL and benzamidine and bacitracin at 100 μg/mL). Cells are given 20 strokes with a Dounce homogenizer on ice and spun at 2000 rpm for 10 minutes. Membranes are isolated from the supernatant by centrifugation at 17,000 rpm for 30 minutes. The membrane pellet is washed once in 15 mL homogenization buffer and once in storage buffer (25 mM Tris pH 7.4 containing protease inhibitors). Each wash is followed by centrifugation at 17,000 rpm for 30 minutes. The membrane pellet is resuspended in storage buffer, measured for protein concentration (BioRad, Calif.) and stored at -80° C.
Binding assay. All reagents for the binding assay are prepared in binding buffer (50 mM Hepes pH 7.4, 2 mM EGTA, 5 mM MgCl2 and protease inhibitors). Membranes are thawed on ice and diluted to […] protein/50 μL binding buffer. ^125 I labeled S-14 (Amersham, Arlington Heights, Ill.) is diluted to 80-100,000 cpm/50 μL in binding buffer. Competitors, either test peptides or standards, are prepared at 4× final concentrations in binding buffer, as are wheat germ agglutinin (WGA)-linked PVC beads that contain solid scintillant (SPA beads, Amersham, Arlington Heights, Ill.). The binding assay is initiated by mixing 50 μL each of membranes, radiolabelled S-14, competitors and SPA beads in each well of a 96-well tray. The assay is incubated by shaking for 10-30 minutes at room temperature and then placing at 4° C. overnight. Bound radioligand is determined by counting in a Microbeta Liquid Scintillation counter (Wallac, Gaithersburg, Md.). Binding data is plotted and IC50 and Ki values are calculated for test compounds using Prism software (Graphpad Software Inc., San Diego, Calif.) and are shown in Table V. Binding is expressed as Ki, μM.

[1] = target: T2, S. cerevisiae (yeast) cells expressing SRIF receptors (Rattus norvegicus, UniProt P30680); assay: Yeast bioassay for SRIF antagonist activity (LY364 cells growing in response to SRIF, zone of growth inhibition); assay type: cell-based; conditions: Sample type 4th iteration; 10 μL of 5 mg/mL on disk, SRIF 10 nM, read after 3 days
T2 construct: expressed in transfected cells; host or cells: S. cerevisiae strain LY364
From the text: SRIF antagonist assay using S. cerevisiae (yeast) cells expressing SRIF receptors that grow in response to SRIF
Agar plates containing LY364 cells that are growing in the presence of added SRIF are the basis for a sensitive SRIF antagonist assay, whereby zones of growth inhibition result from the addition of SRIF antagonists to the surface of the agar plate (see L. A. Price, et al., Molecular and Cellular Biology, 15, 6188-6195, 1995, incorporated herein by reference).
In this assay, LY364 cells are grown overnight in 2 mL of synthetic complete(SC) medium (3.4 g/L YNB without amino acids and ammonium sulfate, 10 g/L ammonium sulfate and 1.4 g/L CSM-ura-trp) with glucose (2%) and without uracil and tryptophan. These cells are washed and cultured for 4 to 8 hours in 5 mL of SC medium with lactate (3%) and without uracil and tryptophan, and finally grown overnight in 5 mL of SC medium with galactose (2%) and without uracil and tryptophan. Molten (50° C.) SC agar medium with galactose (2%) and without uracil, tryptophan and histidine is adjusted to pH 6.8 with KOH, mixed with 2×10^4 cells/mL and SRIF (S-14, 10 nM) and poured into square (20×20 cm) petri dishes. Sterile filter disks are placed on the surface of the agar, and saturated with 10 μL of water or DMSO containing 5 mg/mL test peptides. After three days, the plates display a uniform cloudy background of LY264 cells growing in response to the added SRIF. […] This zone is quantified by measuring its diameter (mm), which varies according to the potency of the SRIF antagonist. Those peptides or mixtures of peptides displaying the largest zones of inhibition are further characterized.
Values are compared among samples in the same experiment, as the degree of yeast growth varies somewhat from assay to assay. For the first five sample types, in which progressively less complex mixtures of peptides are found, this assay is the primary determining factor in choosing which samples form the basis of subsequent syntheses.
Plates are read after 3 days. Samples shown in Table I in bold type are chosen for further synthesis. In Table I, all amino acids are D-amino acids and dashes represent undefined amino acid residues.

Male Sprague-Dawley rats = assay: Serum growth hormone levels in anaesthetized rats given GRF with and without peptide 1; assay type: in vivo, rat
Method: Evaluation in anaesthetized rats. Male Sprague-Dawley rats are anaesthetized with Sagatal and fitted so as to allow efficient intravenous treatment with control and test compounds as well as frequent blood sampling. Blood samples are tested for growth hormone (GH) levels by radioimmunoassay. Thirty minutes after the initiation of blood sampling, rats are given 5 μg, 25 μg or 50 μg of peptide 1.
Peptide 1 is tested in combination with growth hormone releasing factor (GRF), to investigate whether said peptide may be mimicking the action of GRF. Anaesthetized rats are given GRF (1 μg) alone and in combination with peptide 1 (50 μg).

T2 sequence (P30680 whole entry): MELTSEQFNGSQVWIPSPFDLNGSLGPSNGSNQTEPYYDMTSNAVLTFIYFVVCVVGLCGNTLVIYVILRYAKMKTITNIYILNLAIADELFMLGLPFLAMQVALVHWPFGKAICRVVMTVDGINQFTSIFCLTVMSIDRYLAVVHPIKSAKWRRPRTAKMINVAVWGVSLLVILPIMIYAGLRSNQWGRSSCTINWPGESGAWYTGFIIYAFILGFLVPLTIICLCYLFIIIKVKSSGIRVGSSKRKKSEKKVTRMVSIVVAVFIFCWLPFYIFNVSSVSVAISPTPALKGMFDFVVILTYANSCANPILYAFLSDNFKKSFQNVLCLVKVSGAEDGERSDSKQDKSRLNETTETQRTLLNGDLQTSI
T1 sequence (P30680 whole entry): as above

Compound	Ki (SSTR2) [µM]	Inhibition Zone [1] [mm]	further results
CC[C@@H](C)[C@H]1NC(=O)[C@@H](Cc2ccccc2)NC(=O)[C@@H](Cc2c[nH]cn2)NC(=O)[C@@H](Cc2ccccc2)NC(=O)[C@@H](Cc2c[nH]c3ccccc23)NC(=O)[C@@H](CCCNC(=N)N)NC1=O [#STR6##] (cyclo([dH][dF][dI][dR][dW][dF]))	0.14		
CC[C@@H](C)[C@@H](NC(=O)[C@@H](Cc1ccccc1)NC(=O)[C@@H](Cc1c[nH]cn1)NC(C)=O)C(=O)N[C@H](CCCNC(=N)N)C(=O)N[C@H](Cc1c[nH]c2ccccc12)C(=O)N[C@@H](C(N)=O)[C@H](C)O [His Phe Ile Arg Trp Thr] (Ac-[dH][dF][dI][dR][dW][dT]-NH2)		14	
CC[C@@H](C)[C@@H](NC(=O)[C@@H](Cc1ccccc1)NC(=O)[C@@H](Cc1c[nH]cn1)NC(C)=O)C(=O)N[C@H](CCCNC(=N)N)C(=O)N[C@H](Cc1c[nH]c2ccccc12)C(=O)N[C@H](Cc1c[nH]c2ccccc12)C(N)=O [His Phe Ile Arg Trp Trp] (Ac-[dH][dF][dI][dR][dW][dW]-NH2)		16	
CC[C@@H](C)[C@@H](NC(=O)[C@@H](Cc1ccccc1)NC(=O)[C@@H](Cc1c[nH]cn1)NC(C)=O)C(=O)N[C@H](CCCNC(=N)N)C(=O)N[C@H](Cc1c[nH]c2ccccc12)C(=O)N[C@H](Cc1ccc(O)cc1)C(N)=O [His Phe Ile Arg Trp Tyr] (Ac-[dH][dF][dI][dR][dW][dY]-NH2)		16	
CC[C@@H](C)[C@@H](NC(=O)[C@@H](Cc1c[nH]c2ccccc12)NC(=O)[C@@H](Cc1c[nH]cn1)NC(C)=O)C(=O)N[C@H](CCCNC(=N)N)C(=O)N[C@H](Cc1ccccc1)C(=O)N[C@H](Cc1ccccc1)C(N)=O [Peptide 29, h-w-i-r-f-f] (Ac-[dH][dW][dI][dR][dF][dF]-NH2)	0.97		
CC[C@@H](C)[C@@H](NC(=O)[C@@H](CCCNC(=N)N)NC(=O)[C@@H](Cc1c[nH]c2ccccc12)NC(=O)[C@@H](Cc1ccccc1)NC(=O)[C@@H](Cc1c[nH]cn1)NC(C)=O)C(=O)N[C@H](Cc1ccccc1)C(N)=O [Peptide 30, h-f-w-r-i-f] (Ac-[dH][dF][dW][dR][dI][dF]-NH2)	2.8		
CC[C@@H](C)[C@@H](NC(=O)[C@@H](CCCNC(=N)N)NC(=O)[C@@H](Cc1ccccc1)NC(=O)[C@@H](Cc1c[nH]cn1)NC(C)=O)C(=O)N[C@H](Cc1c[nH]c2ccccc12)C(=O)N[C@H](Cc1ccccc1)C(N)=O [Peptide 31, h-f-r-i-w-f] (Ac-[dH][dF][dR][dI][dW][dF]-NH2)	2.5		
CC[C@@H](C)[C@@H](NC(=O)[C@@H](Cc1ccccc1)NC(=O)[C@@H](Cc1c[nH]cn1)NC(=O)[C@@H](Cc1ccccc1)NC(=O)[C@@H](Cc1c[nH]c2ccccc12)NC(C)=O)C(=O)N[C@H](CCCNC(=N)N)C(N)=O [Peptide 32, w-f-h-f-i-r] (Ac-[dW][dF][dH][dF][dI][dR]-NH2)	37.2		
CC[C@@H](C)[C@@H](NC(C)=O)C(=O)N[C@H](CCCNC(=N)N)C(=O)N[C@H](Cc1c[nH]c2ccccc12)C(=O)N[C@H](Cc1ccccc1)C(=O)N[C@H](Cc1c[nH]cn1)C(=O)N[C@H](Cc1ccccc1)C(N)=O [Peptide 33, i-r-w-f-h-f] (Ac-[dI][dR][dW][dF][dH][dF]-NH2)	2.8		
growth hormone releasing factor [GRF]			SGH (Male Sprague-Dawley rats; GRF 1 μg alone or with peptide 1 50 μg at 30 min, sample 35 min): 67.1 ng/mL; SGH (Male Sprague-Dawley rats; GRF 1 μg alone or with peptide 1 50 μg at 30 min, sample 40 min): 103.5 ng/mL; SGH (Male Sprague-Dawley rats; GRF 1 μg alone or with peptide 1 50 μg at 30 min, sample 45 min): 53.1 ng/mL; SGH (Male Sprague-Dawley rats; GRF 1 μg alone or with peptide 1 50 μg, 30 min (time of dosing)): 8.4 ng/mL
